Assay results from patent US9216222B2 (priority 2013, dated 2015).

What was measured:
[1] = system: methemoglobin (metHb); design: species or system rats; settings: rat, in vivo
[2] = system: methemoglobin (metHb); settings: in vivo; cited from earlier work

Compound | metHb levels achieved (can reach) [1] [%] | maximum metHb levels [2]
CC(C)CCON=O [Isoamyl Nitrite, 3-methylbutyl nitrite] | ≥ 20.0 | 
CCCCCO[N+](=O)[O-] [amyl nitrate] |  | 3.45-7.0%
